Calls of active or inactive are those of the source.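 The calls were made as follows: active = compounds whose fitted half-maximal concentration in the cell-protection dose series is at or below a set limit; inactive = the rest.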
What follows are compounds tested on H9c2 cardiomyocytes, 2-deoxyglucose stress, ATP luminescence, 2 h (assay: protection of cardiomyocytes from 2-deoxyglucose injury, dose response, cell-based, 2-deoxyglucose stress, uHTS hits (AID 588780)).

**Q.** COC(=O)c1ccc(OCC(=O)Nc2ccccc2C(=O)NC2CC2)cc1 was tested. Which IC50 did it give?
**A.** The IC50 was 10.6 µM.

**Q.** For NS(=O)(=O)c1ccc(N=Cc2c(O)n(-c3nccs3)c(=O)c3ccccc23)cc1, which IC50 is on record?
**A.** The IC50 was > 79 µM (inactive).

**Q.** For COC(=O)Cn1c(=NC(=O)c2cc(-c3cccs3)nc3ccccc23)sc2cc(S(N)(=O)=O)ccc21, which IC50 is on record?
**A.** The IC50 was 6.88 µM.

**Q.** CC(=O)Nc1ccc(S(=O)(=O)N(Cc2ccco2)Cc2cc3ccccc3[nH]c2=O)cc1 was tested. Which IC50 did it give?
**A.** Its IC50 is > 79 µM (inactive).

**Q.** O=C(NCC1CCCO1)C(c1ccc(F)cc1)N(C(=O)Cn1nnc(-c2ccc(F)cc2)n1)c1cccc(O)c1 (configuration not stated) was tested. Which IC50 did it give?
**A.** Its IC50 is 13.1 µM.

**Q.** With Cc1ccc(-c2n[nH]c(=O)c3ccccc23)cc1S(=O)(=O)NCCN1CCOCC1 as the compound, how does the IC50 read?
**A.** Its IC50 is > 79 µM (inactive).

**Q.** With Cc1cccc(-n2[nH]c(C)c(C=Nc3ccc4[nH]c(=O)[nH]c4c3)c2=O)c1 as the compound, how does the IC50 read?
**A.** Its IC50 is > 79 µM (inactive).

**Q.** With CCn1c(O)c(/C=N/N=C/c2ccccc2)c2ccc(C3=NNC(=O)CC3)cc21 as the compound, how does the IC50 read?
**A.** The IC50 was > 79 µM (inactive).

**Q.** How did the IC50 turn out when O=C(Nc1nc(-c2ccccn2)cs1)c1ccccc1-n1cnnn1 was run?
**A.** Its IC50 is > 79 µM (inactive).

**Q.** For O=C(COC(=O)Cc1n[nH]c(=O)c2ccccc12)NNC(=O)c1ccc(Br)cc1, which IC50 is on record?
**A.** The IC50 was > 79 µM (inactive).

**Q.** How did the IC50 turn out when CN(C(=O)Cn1nc(C(=O)O)c2ccccc2c1=O)C1(C#N)CCCCC1 was run?
**A.** Its IC50 is > 79 µM (inactive).

**Q.** For Cc1c(C#N)c(N)nc2c3c(sc12)NC(=O)CC3c1ccc(Cl)cc1 (configuration not stated), which IC50 is on record?
**A.** The IC50 was 19.7 µM.

**Q.** How did the IC50 turn out when O=C(N/N=C/c1cn(-c2ccccc2)nc1-c1cccs1)c1ccccc1F was run?
**A.** The IC50 was > 79 µM (inactive).

**Q.** Which IC50 does the source give for COc1ccccc1NS(=O)(=O)c1cc(NC(=O)CCc2nc3ccccc3c(=O)[nH]2)ccc1C here?
**A.** Its IC50 is 11.4 µM.

**Q.** COc1ccccc1-c1cc2nc(-c3ccccc3)cc(N3CCN(C(=O)c4ccoc4)CC3)n2n1 was tested. Which IC50 did it give?
**A.** The IC50 was > 79 µM (inactive).

**Q.** With O=c1cc(-c2ccc([N+](=O)[O-])cc2)c2ccc(O)cc2o1 as the compound, how does the IC50 read?
**A.** The IC50 was > 79 µM (inactive).

**Q.** Which IC50 does the source give for CCn1c(SCC(=O)Nc2ccccc2N2CCCCC2)nc2c1c(=O)n(C)c(=O)n2C here?
**A.** Its IC50 is 12.6 µM.

**Q.** Cc1c(O)ccc2c3c(c(=O)oc12)CCC(C)C3 (configuration not stated) was tested. Which IC50 did it give?
**A.** The IC50 was 15.9 µM.

**Q.** For COCCCN(Cc1ccco1)C(=O)Cn1ncc2c([nH]c3ccccc32)c1=O, which IC50 is on record?
**A.** The IC50 was 13.8 µM.

**Q.** With O=C(Nc1ccccc1)c1nc[nH]c1C(=O)NCCNC(=O)c1[nH]cnc1C(=O)Nc1ccccc1 as the compound, how does the IC50 read?
**A.** Its IC50 is > 79 µM (inactive).

**Q.** CCCCC(=O)Nc1cc(C)c2c(=O)oc3ccccc3c2n1 was tested. Which IC50 did it give?
**A.** Its IC50 is > 79 µM (inactive).

**Q.** With O=C(COc1ccccc1[N+](=O)[O-])Nc1ccc(N2CCN(C(=O)c3cccs3)CC2)cc1 as the compound, how does the IC50 read?
**A.** Its IC50 is 8.51 µM.

**Q.** Which IC50 does the source give for O=C(Nc1ccccc1)c1cccc2c(-c3cccnc3)coc12 here?
**A.** The IC50 was > 79 µM (inactive).

**Q.** With O=C(CCc1nc2ccccc2c(=O)[nH]1)N1CCN(S(=O)(=O)c2cc(Cl)ccc2Cl)CC1 as the compound, how does the IC50 read?
**A.** The IC50 was > 79 µM (inactive).

**Q.** O=C(CCc1nc2ccccc2c(=O)[nH]1)NNC(=O)COc1cccc(F)c1 was tested. Which IC50 did it give?
**A.** Its IC50 is > 79 µM (inactive).

**Q.** How did the IC50 turn out when CCCC(c1nnnn1C(C)(C)CC)N(CCCO)Cc1cc2cc(C)cc(C)c2[nH]c1=O (configuration not stated) was run?
**A.** Its IC50 is > 79 µM (inactive).

**Q.** With CC(OC(=O)CCc1nc2ccccc2c(=O)[nH]1)C(=O)NC1CCCC1 (configuration not stated) as the compound, how does the IC50 read?
**A.** Its IC50 is 57.3 µM (inactive).

**Q.** With CC(=O)NC(CCc1ccc(Cl)c(Cl)c1)c1cccc(O)c(=O)c1 (configuration not stated) as the compound, how does the IC50 read?
**A.** The IC50 was > 79 µM (inactive).

**Q.** With O=C(COC(=O)Cn1[nH]c(=O)c2ccccc2c1=O)Nc1ncc(Cl)cc1Cl as the compound, how does the IC50 read?
**A.** Its IC50 is > 79 µM (inactive).

**Q.** CCN1C(=O)/C(=C/c2nc3ccccc3c(=O)[nH]2)c2ccccc21 was tested. Which IC50 did it give?
**A.** Its IC50 is > 79 µM (inactive).

**Q.** Which IC50 does the source give for O=C(COC(=O)Cn1[nH]c(=O)c2ccccc2c1=O)NNC(=O)c1ccccc1 here?
**A.** Its IC50 is > 79 µM (inactive).

**Q.** For O=C(NN=Cc1ccc(N2CCOCC2)s1)c1ccc([N+](=O)[O-])cc1, which IC50 is on record?
**A.** Its IC50 is > 79 µM (inactive).

**Q.** COc1cccc(-c2cnc3c(NC=O)cc(-c4cc(OC)c(OC)c(OC)c4)cn23)c1 was tested. Which IC50 did it give?
**A.** Its IC50 is > 79 µM (inactive).

**Q.** How did the IC50 turn out when Cc1cccc(C(C)C)c1NC(=O)C(C)OC(=O)Cc1n[nH]c(=O)c2ccccc12 (configuration not stated) was run?
**A.** The IC50 was > 79 µM (inactive).

**Q.** How did the IC50 turn out when Cc1cc2[nH]c(=O)c3ccccc3n2n1 was run?
**A.** The IC50 was > 79 µM (inactive).

**Q.** Which IC50 does the source give for CCCCOc1ccc(C(=O)N/C(=C\c2ccc(OC)cc2)C(=O)OCc2ccco2)cc1 here?
**A.** Its IC50 is > 79 µM (inactive).

**Q.** Which IC50 does the source give for O=C(CCc1nc2ccccc2c(=O)[nH]1)Nc1ccc(F)c([N+](=O)[O-])c1 here?
**A.** Its IC50 is 6.81 µM.

**Q.** CCOC(=O)c1ccccc1NC(=O)c1ccc2c(=O)n3c(nc2c1)CCCCC3 was tested. Which IC50 did it give?
**A.** The IC50 was > 79 µM (inactive).

**Q.** For O=c1[nH]c(N2CCN(c3ccccc3)CC2)nc2c1CCCC2, which IC50 is on record?
**A.** The IC50 was > 79 µM (inactive).

**Q.** How did the IC50 turn out when COc1cc(C)cc2oc(=O)c(CC(=O)N3CCN(C(=O)C4COc5ccccc5O4)CC3)c(C)c12 (configuration not stated) was run?
**A.** Its IC50 is 34.9 µM (inactive).

**Q.** Which IC50 does the source give for O=C1C=C(N2CCOCC2)c2cccc3cccc1c23 here?
**A.** Its IC50 is > 79 µM (inactive).

**Q.** Which IC50 does the source give for CN(C(=O)CSc1nc2c(c(=O)[nH]1)CCCC2)C1CCCCC1 here?
**A.** Its IC50 is > 79 µM (inactive).

**Q.** How did the IC50 turn out when COc1ccc(Nc2nc(C(=O)N3CCc4cc(OC)c(OC)cc4C3)cs2)cc1 was run?
**A.** Its IC50 is > 79 µM (inactive).

**Q.** For Cc1cccc(OCCn2nc(C(=O)O)c3ccccc3c2=O)c1, which IC50 is on record?
**A.** Its IC50 is > 79 µM (inactive).

**Q.** Which IC50 does the source give for COc1cc(C(=O)Nc2ccc(NC(=O)c3ccco3)nc2)cc(OC)c1OC here?
**A.** The IC50 was 53.5 µM (inactive).

**Q.** For COc1ccccc1NC(=O)COc1ccc(/C=N/NC(=O)c2cccnc2)cc1, which IC50 is on record?
**A.** The IC50 was 14.8 µM.

**Q.** How did the IC50 turn out when CC(Oc1ccc(Br)cc1)C(=O)Nc1nc(-c2ccccn2)cs1 (configuration not stated) was run?
**A.** Its IC50 is > 79 µM (inactive).
